Data: patent US6737383B1, “Herbicidal oxadiazolidines” (priority 1999, dated 2004)

Experiments:
sugar beet = experiment: Test B pre/postemergence sugar beet; assay type: in vivo, Beta vulgaris
Summary of the method: (§1)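 Test chemicals in a non-phytotoxic solvent mixture with surfactant were sprayed preemergence onto planted seeds and postemergence onto plants 2 to 18 cm tall (1- to 4-leaf stage). After twelve to sixteen days in a greenhouse, injury was visually rated against untreated controls from 0 (no effect) to 10 (complete control).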

rape = experiment: Test B pre/postemergence rape; assay type: in vivo, Brassica napus
Summary of the method: as §1

duck salad = experiment: Test B flood test duck salad; assay type: in vivo, Heteranthera limosa
Summary of the method: (§2)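 Plants were grown to the 2-leaf stage before treatment with test chemical, then held in a greenhouse for twelve to sixteen days. Injury was visually rated against untreated controls on a 0–10 scale, where 0 is no effect and 10 is complete control.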

wild oat = experiment: Test B pre/postemergence wild oat; assay type: in vivo, Avena fatua
Summary of the method: as §1

pigweed = experiment: Test B pre/postemergence pigweed; assay type: in vivo, Amaranthus retroflexus
Summary of the method: as §1

purple nutsedge = experiment: Test B pre/postemergence purple nutsedge; assay type: in vivo, Cyperus rotundus
Summary of the method: as §1

crabgrass = experiment: Test B pre/postemergence crabgrass; assay type: in vivo, Digitaria sanguinalis
Summary of the method: as §1

giant foxtail = experiment: Test B pre/postemergence giant foxtail; assay type: in vivo, Setaria faberii
Summary of the method: as §1

bamyardgrass = experiment: Test B flood test barnyardgrass; assay type: in vivo, Echinochloa crus-galli
Summary of the method: as §2

rice = experiment: Test B flood test rice; assay type: in vivo, Oryza sativa
Summary of the method: as §2

smallflower flatsedge = experiment: Test B flood test smallflower flatsedge; assay type: in vivo, Cyperus difformis
Summary of the method: as §2

soybean = experiment: Test B pre/postemergence soybean; assay type: in vivo, Glycine max
Summary of the method: as §1

morningglory = experiment: Test B pre/postemergence morningglory; assay type: in vivo, Ipomoea hederacea
Summary of the method: as §1

cocklebur = experiment: Test B pre/postemergence cocklebur; assay type: in vivo, Xanthium strumarium
Summary of the method: as §1

surinam grass = experiment: Test B pre/postemergence surinam grass; assay type: in vivo, Brachiaria decumbens
Summary of the method: as §1

corn = experiment: Test B pre/postemergence corn; assay type: in vivo, Zea mays
Summary of the method: as §1

[1] = Preemergence, Rate 62 g/ha, scale of 0 to 10 where 0 is no effect and 10 is complete control
[2] = Preemergence, Rate 250 g/ha, scale of 0 to 10 where 0 is no effect and 10 is complete control
[3] = Preemergence, Rate 500 g/ha, scale of 0 to 10 where 0 is no effect and 10 is complete control
[4] = Rate 125 g/ha, Postemergence, scale of 0 to 10 where 0 is no effect and 10 is complete control
[5] = Rate 125 g/ha, Preemergence, scale of 0 to 10 where 0 is no effect and 10 is complete control
[6] = Rate 250 g/ha, Postemergence, scale of 0 to 10 where 0 is no effect and 10 is complete control
[7] = Rate 500 g/ha, Postemergence, scale 0 to 10, 0 no effect, 10 complete control
[8] = Rate 62 g/ha, headed Pre-emergence (flood test species), scale 0 to 10 (0 no effect, 10 complete control)
[9] = Rate 125 g/ha, Pre-emergence, flood test species, scale 0 to 10 where 0 is no effect and 10 is complete control
[10] = Rate 250 g/ha, Pre-emergence, flood-test species, scale 0 to 10, 0 is no effect, 10 is complete control
[11] = Rate 500 g/ha, Pre-emergence, flood test species, scale 0 to 10 (0 no effect, 10 complete control)
[12] = Rate 62 g/ha, Postemergence, scale of 0 to 10 where 0 is no effect and 10 is complete control

CC(C)N(C(=O)n1oc(=O)n(Cc2ccccn2)c1=O)c1ccc(F)cc1 [Compound 267]
Sugarbeets plant response rating (sugar beet; [1]): 0
Sugarbeets plant response rating (sugar beet; [2]): 0
Plant response rating, Sugarbeets (sugar beet; [3]): 5
Sugarbeets plant response rating (sugar beet; [4]): 0
Sugarbeets plant response rating (sugar beet; [5]): 0
Plant response rating, Sugarbeets (sugar beet; [6]): 2
Sugarbeets plant response rating (sugar beet; [7]): 4
Rape plant response rating (rape; [1]): 0
Rape plant response rating (rape; [2]): 0
Plant response rating, Rape (rape; [3]): 0
Rape plant response rating (rape; [4]): 0
Rape plant response rating (rape; [5]): 0
Plant response rating, Rape (rape; [6]): 0
Rape plant response rating (rape; [7]): 2
Ducksalad plant response rating (duck salad; [8]): 0
Ducksalad plant response rating (duck salad; [9]): 0
Ducksalad plant response rating (duck salad; [10]): 0
Ducksalad plant response rating (duck salad; [11]): 0
Wild oats plant response rating (wild oat; [1]): 0
Wild oats plant response rating (wild oat; [2]): 0
Plant response rating, Wild oats (wild oat; [3]): 2
Wild oats plant response rating (wild oat; [4]): 0
Wild oats plant response rating (wild oat; [5]): 0
Plant response rating, Wild oats (wild oat; [6]): 2
Wild oats plant response rating (wild oat; [7]): 4
Redroot pigweed plant response rating (pigweed; [1]): 0
Redroot pigweed plant response rating (pigweed; [2]): 6
Plant response rating, Redroot pigweed (pigweed; [3]): 7
Redroot pigweed plant response rating (pigweed; [4]): 0
Redroot pigweed plant response rating (pigweed; [5]): 3
Plant response rating, Redroot pigweed (pigweed; [6]): 0
Redroot pigweed plant response rating (pigweed; [7]): 6
Nutsedge plant response rating (purple nutsedge; [1]): 0
Nutsedge plant response rating (purple nutsedge; [2]): 0
Plant response rating, Nutsedge (purple nutsedge; [3]): 0
Nutsedge plant response rating (purple nutsedge; [4]): 0
Nutsedge plant response rating (purple nutsedge; [5]): 0
Plant response rating, Nutsedge (purple nutsedge; [6]): 0
Nutsedge plant response rating (purple nutsedge; [7]): 4
Crabgrass plant response rating (crabgrass; [1]): 2
Crabgrass plant response rating (crabgrass; [2]): 1
Plant response rating, Crabgrass (crabgrass; [3]): 8
Crabgrass plant response rating (crabgrass; [4]): 0
Crabgrass plant response rating (crabgrass; [5]): 0
Plant response rating, Crabgrass (crabgrass; [6]): 3
Crabgrass plant response rating (crabgrass; [7]): 7
Giant foxtail plant response rating (giant foxtail; [1]): 8
Giant foxtail plant response rating (giant foxtail; [2]): 9
Plant response rating, Giant foxtail (giant foxtail; [3]): 9
Giant foxtail plant response rating (giant foxtail; [4]): 0
Giant foxtail plant response rating (giant foxtail; [5]): 8
Plant response rating, Giant foxtail (giant foxtail; [6]): 2
Giant foxtail plant response rating (giant foxtail; [7]): 7
Barnyardgrass plant response rating (bamyardgrass; [8]): 0
Barnyardgrass plant response rating (bamyardgrass; [9]): 0
Barnyardgrass plant response rating (bamyardgrass; [10]): 0
Barnyardgrass plant response rating (bamyardgrass; [11]): 0
Rice plant response rating (rice; [8]): 0
Rice plant response rating (rice; [9]): 0
Rice plant response rating (rice; [10]): 0
Rice plant response rating (rice; [11]): 0
S. Flatsedge plant response rating (smallflower flatsedge; [8]): 0
S. Flatsedge plant response rating (smallflower flatsedge; [9]): 0
S. Flatsedge plant response rating (smallflower flatsedge; [10]): 0
S. Flatsedge plant response rating (smallflower flatsedge; [11]): 0
Soybean plant response rating (soybean; [1]): 0
Soybean plant response rating (soybean; [2]): 0
Plant response rating, Soybean (soybean; [3]): 0
Soybean plant response rating (soybean; [4]): 2
Soybean plant response rating (soybean; [5]): 0
Plant response rating, Soybean (soybean; [6]): 3
Soybean plant response rating (soybean; [7]): 6
Morningglory plant response rating (morningglory; [1]): 0
Morningglory plant response rating (morningglory; [2]): 0
Plant response rating, Morningglory (morningglory; [3]): 0
Morningglory plant response rating (morningglory; [4]): 1
Morningglory plant response rating (morningglory; [5]): 0
Plant response rating, Morningglory (morningglory; [6]): 3
Morningglory plant response rating (morningglory; [7]): 8
Cocklebur plant response rating (cocklebur; [1]): 0
Cocklebur plant response rating (cocklebur; [2]): 0
Plant response rating, Cocklebur (cocklebur; [3]): 0
Cocklebur plant response rating (cocklebur; [12]): 0
Cocklebur plant response rating (cocklebur; [4]): 0
Cocklebur plant response rating (cocklebur; [5]): 0
Plant response rating, Cocklebur (cocklebur; [6]): 1
Cocklebur plant response rating (cocklebur; [7]): 3
B. signalgrass plant response rating (surinam grass; [1]): 0
B. signalgrass plant response rating (surinam grass; [2]): 0
Plant response rating, B. signalgrass (surinam grass; [3]): 9
B. signalgrass plant response rating (surinam grass; [12]): 0
B. signalgrass plant response rating (surinam grass; [4]): 0
B. signalgrass plant response rating (surinam grass; [5]): 0
Plant response rating, B. signalgrass (surinam grass; [6]): 0
B. signalgrass plant response rating (surinam grass; [7]): 3
Corn plant response rating (corn; [1]): 0
Corn plant response rating (corn; [2]): 2
Plant response rating, Corn (corn; [3]): 3
Corn plant response rating (corn; [12]): 0
Corn plant response rating (corn; [4]): 0
Corn plant response rating (corn; [5]): 0
Plant response rating, Corn (corn; [6]): 0
Corn plant response rating (corn; [7]): 0
